Data published in patent publication US10975077B2 (Novira Therapeutics, Inc., priority 2016, dated 2021).

system: HBV (encapsidated HBV DNA, HepG2.2.15 cells); test: HBV replication inhibition assay, BDNA assay in HepG2.2.15 cells; type: cell-based; details: Activity in BDNA-assay
In short: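 Encapsidated HBV DNA in DNase-treated, proteinase K-lysed supernatant was measured by branched DNA after 6 days' compound exposure, refreshed on day 3, of HepG2.2.15 cells in 0.5% DMSO. Signals normalized to DMSO-treated wells; EC50 from nonlinear regression of inhibition against log concentration.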

| SMILES | EC50 [nM] |
| --- | --- |
| C=CC(O)C1CN(C)C(=O)c2c3c(nn2C1)CC(C)N(C(=O)Nc1ccc(F)c(C#N)c1)C3 (single isomer, unassigned) [Compound 123_D2, (3R,8S*)—N-(3-cyano-4-fluorophenyl)-8-((S*)-1-hydroxyallyl)-3,10-dimethyl-11-oxo-1,3,4,7,8,9,10,11-octahydro-2H-pyrido[4′,3′:3,4]pyrazolo[1,5-a][1,4]diazepine-2-carboxamide] | 100 to 500 |
| CN1CC(CNCC(F)F)Cn2nc3c(c2C1=O)CN(C(=O)Nc1cc(Br)c(F)cc1F)CC3 (single isomer, unassigned) [Compound 125_E1, (R*)—N-(5-bromo-2,4-difluorophenyl)-8-(((2,2-difluoroethyl)amino)methyl)-10-methyl-11-oxo-1,3,4,7,8,9,10,11-octahydro-2H-pyrido[4′,3′:3,4]pyrazolo[1,5-a][1,4]diazepine-2-carboxamide] | 100 to 500 |
| CN1CC(CNCC(F)F)Cn2nc3c(c2C1=O)CN(C(=O)Nc1cc(Br)c(F)cc1F)CC3 (single isomer, unassigned) [Compound 125_E2, (S*)—N-(5-bromo-2,4-difluorophenyl)-8-(((2,2-difluoroethyl)amino)methyl)-10-methyl-11-oxo-1,3,4,7,8,9,10,11-octahydro-2H-pyrido[4′,3′:3,4]pyrazolo[1,5-a][1,4]diazepine-2-carboxamide] | 1 to 100 |
| CN1CC(CNCC(F)F)Cn2nc3c(c2C1=O)CN(C(=O)Nc1cc(Cl)c(F)cc1F)CC3 (single isomer, unassigned) [Compound 126_E2, (S*)—N-(5-chloro-2,4-difluorophenyl)-8-(((2,2-difluoroethyl)amino)methyl)-10-methyl-11-oxo-1,3,4,7,8,9,10,11-octahydro-2H-pyrido[4′,3′:3,4]pyrazolo[1,5-a][1,4]diazepine-2-carboxamide] | 100 to 500 |
| CN1CC(CNCC(F)F)Cn2nc3c(c2C1=O)CN(C(=O)Nc1ccc(F)c(C#N)c1F)CC3 (single isomer, unassigned) [Compound 127_E1, (R*)—N-(3-cyano-2,4-difluorophenyl)-8-(((2,2-difluoroethyl)amino)methyl)-10-methyl-11-oxo-1,3,4,7,8,9,10,11-octahydro-2H-pyrido[4′,3′:3,4]pyrazolo[1,5-a][1,4]diazepine-2-carboxamide] | 500 to 1000 |
| CN1CC(CNCC(F)F)Cn2nc3c(c2C1=O)CN(C(=O)Nc1ccc(F)c(C#N)c1F)CC3 (single isomer, unassigned) [Compound 127_E2, (S*)—N-(3-cyano-2,4-difluorophenyl)-8-(((2,2-difluoroethyl)amino)methyl)-10-methyl-11-oxo-1,3,4,7,8,9,10,11-octahydro-2H-pyrido[4′,3′:3,4]pyrazolo[1,5-a][1,4]diazepine-2-carboxamide] | 1 to 100 |
| CN1CC(CNCC(F)F)Cn2nc3c(c2C1=O)CN(C(=O)Nc1ccc(F)c(Cl)c1F)CC3 (single isomer, unassigned) [Compound 128_E1, (R*)—N-(3-chloro-2,4-difluorophenyl)-8-(((2,2-difluoroethyl)amino)methyl)-10-methyl-11-oxo-1,3,4,7,8,9,10,11-octahydro-2H-pyrido[4′,3′:3,4]pyrazolo[1,5-a][1,4]diazepine-2-carboxamide] | 100 to 500 |
| CN1CC(CNCC(F)F)Cn2nc3c(c2C1=O)CN(C(=O)Nc1ccc(F)c(Cl)c1F)CC3 (single isomer, unassigned) [Compound 128_E2, (S*)—N-(3-chloro-2,4-difluorophenyl)-8-(((2,2-difluoroethyl)amino)methyl)-10-methyl-11-oxo-1,3,4,7,8,9,10,11-octahydro-2H-pyrido[4′,3′:3,4]pyrazolo[1,5-a][1,4]diazepine-2-carboxamide] | 1 to 100 |
| CN1CC(CNCC(F)F)Cn2nc3c(c2C1=O)CN(C(=O)Nc1ccc(F)c(Br)c1F)CC3 (single isomer, unassigned) [Compound 129_E1, (R*)—N-(3-bromo-2,4-difluorophenyl)-8-(((2,2-difluoroethyl)amino)methyl)-10-methyl-11-oxo-1,3,4,7,8,9,10,11-octahydro-2H-pyrido[4′,3′:3,4]pyrazolo[1,5-a][1,4]diazepine-2-carboxamide] | 100 to 500 |
| CN1CC(CNCC(F)F)Cn2nc3c(c2C1=O)CN(C(=O)Nc1ccc(F)c(Br)c1F)CC3 (single isomer, unassigned) [Compound 129_E2, (S*)—N-(3-bromo-2,4-difluorophenyl)-8-(((2,2-difluoroethyl)amino)methyl)-10-methyl-11-oxo-1,3,4,7,8,9,10,11-octahydro-2H-pyrido[4′,3′:3,4]pyrazolo[1,5-a][1,4]diazepine-2-carboxamide] | 1 to 100 |
| CN1CC(CNCC(F)F)Cn2nc3c(c2C1=O)CN(C(=O)Nc1ccc(F)c(Br)c1)CC3 (single isomer, unassigned) [Compound 130_E2, (S*)—N-(3-bromo-4-fluorophenyl)-8-(((2,2-difluoroethyl)amino)methyl)-10-methyl-11-oxo-1,3,4,7,8,9,10,11-octahydro-2H-pyrido[4′,3′:3,4]pyrazolo[1,5-a][1,4]diazepine-2-carboxamide] | 1 to 100 |
| CN1CC(CNCC(F)F)Cn2nc3c(c2C1=O)CN(C(=O)Nc1ccc(F)c(C(F)(F)F)c1F)CC3 (single isomer, unassigned) [Compound 131_E2, (S*)—N-(2,4-difluoro-3-(trifluoromethyl)phenyl)-8-(((2,2-difluoroethyl)amino)methyl)-10-methyl-11-oxo-1,3,4,7,8,9,10,11-octahydro-2H-pyrido[4′,3′:3,4]pyrazolo[1,5-a][1,4]diazepine-2-carboxamide] | 100 to 500 |

same assay, conditions: Hepatitis B virus, HepG2.2.15, Activity in BDNA-assay

| SMILES | EC50 [nM] |
| --- | --- |
| CN1CC(CNCC(F)F)Cn2nc3c(c2C1=O)CN(C(=O)Nc1cc(Cl)c(F)cc1F)CC3 (single isomer, unassigned) [Compound 126_E1, (R*)—N-(5-chloro-2,4-difluorophenyl)-8-(((2,2-difluoroethyl)amino)methyl)-10-methyl-11-oxo-1,3,4,7,8,9,10,11-octahydro-2H-pyrido[4′,3′:3,4]pyrazolo[1,5-a][1,4]diazepine-2-carboxamide] | 100 to 500 |
| CN1CC(CNCC(F)F)Cn2nc3c(c2C1=O)CN(C(=O)Nc1ccc(F)c(Br)c1)CC3 (single isomer, unassigned) [Compound 130_E1, (R*)—N-(3-bromo-4-fluorophenyl)-8-(((2,2-difluoroethyl)amino)methyl)-10-methyl-11-oxo-1,3,4,7,8,9,10,11-octahydro-2H-pyrido[4′,3′:3,4]pyrazolo[1,5-a][1,4]diazepine-2-carboxamide] | 1 to 100 |
| CN1CC(CNCC(F)F)Cn2nc3c(c2C1=O)CN(C(=O)Nc1ccc(F)c(C(F)(F)F)c1F)CC3 (single isomer, unassigned) [Compound 131_E1, (R*)—N-(2,4-difluoro-3-(trifluoromethyl)phenyl)-8-(((2,2-difluoroethyl)amino)methyl)-10-methyl-11-oxo-1,3,4,7,8,9,10,11-octahydro-2H-pyrido[4′,3′:3,4]pyrazolo[1,5-a][1,4]diazepine-2-carboxamide] | 100 to 500 |
| C[C@@H]1Cc2nn3c(c2CN1C(=O)Nc1ccc(F)c(C(F)(F)F)c1)C(=O)N(C)CC(F)(CO)C3 (single isomer, unassigned) [Compound 133_D1, (3R,8R*)-8-fluoro-N-(4-fluoro-3-(trifluoromethyl)phenyl)-8-(hydroxymethyl)-3,10-dimethyl-11-oxo-1,3,4,7,8,9,10,11-octahydro-2H-pyrido[4′,3′:3,4]pyrazolo[1,5-a][1,4]diazepine-2-carboxamide_D1] | 1 to 100 |
